Structures are written as SMILES.

In series [1] the target is T1, Broad substrate specificity ATP-binding cassette transporter ABCG2 (Homo sapiens, UniProt Q9UNQ0).
T1 sequence (Q9UNQ0 whole entry): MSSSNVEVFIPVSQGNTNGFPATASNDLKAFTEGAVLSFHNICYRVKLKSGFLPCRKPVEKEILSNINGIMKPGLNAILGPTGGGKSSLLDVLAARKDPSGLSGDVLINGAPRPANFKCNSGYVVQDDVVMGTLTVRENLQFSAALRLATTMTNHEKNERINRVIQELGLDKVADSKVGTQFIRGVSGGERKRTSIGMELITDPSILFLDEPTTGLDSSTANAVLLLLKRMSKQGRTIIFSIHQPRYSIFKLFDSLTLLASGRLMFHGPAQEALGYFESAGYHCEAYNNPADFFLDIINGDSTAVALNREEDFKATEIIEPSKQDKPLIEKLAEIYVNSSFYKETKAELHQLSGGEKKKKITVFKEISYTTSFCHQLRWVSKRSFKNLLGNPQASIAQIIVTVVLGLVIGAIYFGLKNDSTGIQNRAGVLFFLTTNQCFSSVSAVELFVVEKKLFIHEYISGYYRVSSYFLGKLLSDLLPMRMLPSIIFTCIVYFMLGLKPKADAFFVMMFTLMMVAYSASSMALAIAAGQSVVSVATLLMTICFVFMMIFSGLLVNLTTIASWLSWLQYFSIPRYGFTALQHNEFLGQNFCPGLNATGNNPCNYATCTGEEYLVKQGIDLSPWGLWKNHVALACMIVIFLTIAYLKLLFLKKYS
Briefly: TP_TRANSPORTER: intracellular accumulation in S1 and S1-M1-80 cells. In kind it is functional, cell-based. Conditions: s1;s1-m1-80.

Series [2] deals with T1, Broad substrate specificity ATP-binding cassette transporter ABCG2. In words: TP_TRANSPORTER: intracellular accumulation in MCF-7 and MCF-7 AdVp3000 cells. It is filed as functional, cell-based.

In the case of `O=C1c2c(O)ccc(O)c2C(=O)c2c(NCCNCCO)ccc(NCCNCCO)c21` [MITOXANTRONE], the Activity result in series [1] and in series [2] was “substrate [+]” throughout.

The values above are taken from ChEMBL document CHEMBL2073744, “The multidrug-resistant phenotype associated with overexpression of the new ABC half-transporter, MXR (ABCG2)” (J Cell Sci, 2000).
